From publication PMC4340402 (The Journal of Biological Chemistry, 2014)
Residue numbers refer to the chain shown, from its start. One block for each compound: values may come before it.

Tests used:
Assay in all cases: two-electrode voltage clamp, Xenopus oocytes
X1-CγX4 = test system: T1, X1-CγX4; format: cell-based, Homo sapiens; Rattus norvegicus; conditions: agonist; 3 s application; ND96 with Ba2+, -60 mV
T1 construct: gene P2RX1; hP2X1 with residues 210-215 replaced by the corresponding rP2X4 segment; Xenopus oocytes
From the text: two-electrode voltage clamp, Xenopus oocytes on X1-CγX4

X1-DX4 = test system: T2, X1-DX4; format: cell-based, Homo sapiens; Rattus norvegicus; conditions: ND96 with Ba2+, -60 mV
T2 construct: gene P2RX1; hP2X1 with residues 262-330 (hP2X1 numbering) replaced by the corresponding rP2X4 segment; Xenopus oocytes
From the text: two-electrode voltage clamp, Xenopus oocytes on X1-DX4

X1-CαX4 = test system: T3, X1-CαX4; format: cell-based, Homo sapiens; Rattus norvegicus; conditions: agonist; 3 s application; ND96 with Ba2+, -60 mV
T3 construct: gene P2RX1; text says 184-209) replaced by the corresponding rP2X4 segment; Xenopus oocytes
From the text: two-electrode voltage clamp, Xenopus oocytes on X1-CαX4

X1-CζX4 = test system: T4, X1-CζX4; format: cell-based, Homo sapiens; Rattus norvegicus; conditions: agonist; 3 s application; ND96 with Ba2+, -60 mV
T4 construct: gene P2RX1; hP2X1 with residues 227-231 replaced by the corresponding rP2X4 segment; Xenopus oocytes
From the text: two-electrode voltage clamp, Xenopus oocytes on X1-CζX4

X1-CβX4 = test system: T5, X1-CβX4; format: cell-based, Homo sapiens; Rattus norvegicus; conditions: agonist; 3 s application; ND96 with Ba2+, -60 mV
T5 construct: gene P2RX1; hP2X1 with residues 232-261 replaced by the corresponding rP2X4 segment; Xenopus oocytes
From the text: two-electrode voltage clamp, Xenopus oocytes on X1-CβX4

X1-BX4 [1] = test system: T6, X1-BX4; format: cell-based, Homo sapiens; Rattus norvegicus; conditions: agonist; 3 s application; ND96 with Ba2+, -60 mV
T6 construct: gene P2RX1; hP2X1 with residues 133-184 (hP2X1 numbering) replaced by the corresponding rP2X4 segment; Xenopus oocytes

X1-CX4 = test system: T7, X1-CX4; format: cell-based, Homo sapiens; Rattus norvegicus; conditions: ND96 with Ba2+, -60 mV
T7 construct: gene P2RX1; hP2X1 with residues 185-261 (hP2X1 numbering) replaced by the corresponding rP2X4 segment; Xenopus oocytes
From the text: two-electrode voltage clamp, Xenopus oocytes on X1-CX4

hP2X1 receptor = molecular target: T8, hP2X1 receptor (Homo sapiens, UniProt P51575); format: cell-based
T8 construct: gene P2RX1; full-length cDNA cloned from bladder; homotrimer; cRNA expressed in Xenopus laevis oocytes
T8 sequence (P51575 1-399): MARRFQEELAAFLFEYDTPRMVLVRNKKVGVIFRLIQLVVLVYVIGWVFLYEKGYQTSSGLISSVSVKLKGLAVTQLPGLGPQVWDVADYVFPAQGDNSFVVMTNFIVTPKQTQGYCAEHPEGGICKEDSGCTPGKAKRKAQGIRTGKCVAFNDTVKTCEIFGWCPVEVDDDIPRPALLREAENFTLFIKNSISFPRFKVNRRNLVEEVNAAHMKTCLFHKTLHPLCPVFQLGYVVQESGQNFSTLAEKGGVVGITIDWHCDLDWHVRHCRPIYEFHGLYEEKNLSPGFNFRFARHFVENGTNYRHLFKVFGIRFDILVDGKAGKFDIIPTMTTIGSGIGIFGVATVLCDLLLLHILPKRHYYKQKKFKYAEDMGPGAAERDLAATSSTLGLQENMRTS
From the text: two-electrode voltage clamp, Xenopus oocytes on hP2X1 receptor

X1-CδX4 = test system: T9, X1-CδX4; format: cell-based, Homo sapiens; Rattus norvegicus; conditions: agonist; 3 s application; ND96 with Ba2+, -60 mV
T9 construct: gene P2RX1; hP2X1 with residues 216-220 replaced by the corresponding rP2X4 segment; Xenopus oocytes
From the text: two-electrode voltage clamp, Xenopus oocytes on X1-CδX4

X1-AX4 = test system: T10, X1-AX4; format: cell-based, Homo sapiens; Rattus norvegicus; conditions: ND96 with Ba2+, -60 mV
T10 construct: gene P2RX1; hP2X1 with residues 63-132 replaced by the corresponding rP2X4 segment (63-133); Xenopus oocytes
From the text: two-electrode voltage clamp, Xenopus oocytes on X1-AX4

X1-CϵX4 = test system: T11, X1-CϵX4; format: cell-based, Homo sapiens; Rattus norvegicus; conditions: agonist; 3 s application; ND96 with Ba2+, -60 mV
T11 construct: gene P2RX1; hP2X1 with residues 221-226 replaced by the corresponding rP2X4 segment; Xenopus oocytes
From the text: two-electrode voltage clamp, Xenopus oocytes on X1-CϵX4

X1-BX4 [2] = test system: T6, X1-BX4; format: cell-based, Homo sapiens; Rattus norvegicus; conditions: ND96 with Ba2+, -60 mV
From the text: two-electrode voltage clamp, Xenopus oocytes on X1-BX4

rP2X4 receptor [3] = molecular target: T12, rP2X4 receptor (Rattus norvegicus, UniProt P51577, Y378A); format: cell-based
T12 construct: gene P2rx4; homotrimer; cRNA expressed in Xenopus laevis oocytes
T12 sequence (P51577 1-388 Y378A): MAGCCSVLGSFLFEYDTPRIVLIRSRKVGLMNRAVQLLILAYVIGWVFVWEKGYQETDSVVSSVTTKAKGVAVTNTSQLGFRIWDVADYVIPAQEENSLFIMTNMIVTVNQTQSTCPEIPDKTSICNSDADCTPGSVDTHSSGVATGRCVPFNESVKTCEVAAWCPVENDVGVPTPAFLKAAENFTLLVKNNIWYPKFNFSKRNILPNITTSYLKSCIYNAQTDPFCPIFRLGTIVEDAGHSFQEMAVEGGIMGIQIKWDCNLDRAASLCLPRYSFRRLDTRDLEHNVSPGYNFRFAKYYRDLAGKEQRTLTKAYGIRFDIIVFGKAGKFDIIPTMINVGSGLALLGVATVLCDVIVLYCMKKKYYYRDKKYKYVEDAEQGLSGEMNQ
From the text: two-electrode voltage clamp, Xenopus oocytes on rP2X4 receptor

X1-BX4 [4] = test system: T6, X1-BX4; format: cell-based, Homo sapiens; Rattus norvegicus; conditions: antagonist at EC90 of ATP; 5 min preincubation; ND96 with Ba2+, -60 mV
rP2X4 receptor [5] = molecular target: T13, rP2X4 receptor (Rattus norvegicus, UniProt P51577, D138K/H140K/S136K/T139R/Y378A); format: cell-based; conditions: read-out: % of control at 1 μM
T13 construct: gene P2rx4; homotrimer; cRNA expressed in Xenopus laevis oocytes
T13 sequence (P51577 1-388 S136K/D138K/T139R/H140K/Y378A): T12 sequence (P51577 1-388 Y378A) with S136K, D138K, T139R, H140K

[6] = read-out: ATP / pEC50 (converted)
[7] = antagonist at EC90 of ATP, 5 min preincubation

- ATP / pEC50 (X1-CγX4): 5.71 ± 0.06
- ATP / pEC50 (X1-DX4; agonist, 3 s application): 5.08 ± 0.04
- ATP / pEC50 (X1-CαX4): 5.34 ± 0.05
- ATP / pEC50 (X1-CζX4): 5.54 ± 0.06
- ATP / pEC50 (X1-CβX4): 5.30 ± 0.06
- pEC50 (X1-BX4 [1]): 3.6 ± 0.1
- ATP / pEC50 (X1-CX4; agonist, 3 s application): 6.17 ± 0.13
- EC50 (hP2X1 receptor; [6]): 490 nM
- ATP / pEC50 (X1-CδX4): 5.21 ± 0.04
- ATP / pEC50 (X1-AX4; agonist, 3 s application): 4.43 ± 0.08
- ATP / pEC50 (X1-CϵX4): 5.68 ± 0.06
- ATP / pEC50 (X1-BX4 [2]; agonist, 3 s application): 4.28 ± 0.04
- EC50 (rP2X4 receptor [3]; [6]): 4070 nM
Structure (SMILES): Nc1ncnc2c1ncn2[C@@H]1O[C@H](COP(=O)(O)OP(=O)(O)OP(=O)(O)O)[C@@H](O)[C@H]1O [ATP]

- pIC50 (X1-BX4 [4]): 9.28 ± 0.05
- remaining activity at 1 µM (rP2X4 receptor [5]): 104 ± 5.3%
- IC50 (rP2X4 receptor [3]): > 1000 nM
Structure (SMILES): O=C(Nc1cc(C(=O)Nc2ccc(S(=O)(=O)O)cc2S(=O)(=O)O)cc(C(=O)Nc2ccc(S(=O)(=O)O)cc2S(=O)(=O)O)c1)Nc1cc(C(=O)Nc2ccc(S(=O)(=O)O)cc2S(=O)(=O)O)cc(C(=O)Nc2ccc(S(=O)(=O)O)cc2S(=O)(=O)O)c1 [NF449, 4,4′,4″,4‴-(carbonylbis(imino-5,1,3-benzenetriylbis(carbonylimino)))tetrakisbenzene-1,3-disulfonic acid]

- PPADS / pIC50 (X1-DX4; [7]): 6.95 ± 0.07
- PPADS / pIC50 (X1-CX4; [7]): 5.47 ± 0.12
- IC50 (hP2X1 receptor; read-out: PPADS / pIC50 (converted)): 1580 nM
- PPADS / pIC50 (X1-AX4; [7]): 6.18 ± 0.02
- PPADS / pIC50 (X1-BX4 [2]; [7]): 5.24 ± 0.12
- IC50 (rP2X4 receptor [3]): > 100000 nM
Structure (SMILES): Cc1nc(N=Nc2ccc(S(=O)(=O)O)cc2S(=O)(=O)O)c(COP(=O)(O)O)c(C=O)c1O [PPADS, pyridoxal-phosphate-6-azophenyl-2,4-disulfonate]

- IC50 (rP2X4 receptor [3]): > 100000 nM
Structure (SMILES): Cc1ccc(C(=O)Nc2ccc(S(=O)(=O)O)c3cc(S(=O)(=O)O)cc(S(=O)(=O)O)c23)cc1NC(=O)c1cccc(NC(=O)Nc2cccc(C(=O)Nc3cc(C(=O)Nc4ccc(S(=O)(=O)O)c5cc(S(=O)(=O)O)cc(S(=O)(=O)O)c45)ccc3C)c2)c1 [Suramin]
